Experimental data reported in paper PMC7093416, “Selective USP7 inhibition elicits cancer cell killing through a p53-dependent mechanism” (Scientific Reports, 2020).
“And” between values parts separate entries of the source, which are not always exact repeats. Identical values can stand only once.

Tested on: panel of 484 cancer cell lines
Experiment: PRISM cancer cell line profiling, 5 days
Format: cell-based
Design: Viability: scale not given here; AUC: unit not given beside the values
Procedure: Cancer cell line profiling was performed using the Broad’s PRISM platform. Cell treatment and data analysis were performed as described in Yu et al[42]. Raw Luminex signal was converted to AUC values for each cell line as described. The resulting AUC profile for each compound was modeled against DepMap using the limma package in R[71]. Because hotspot mutation analysis was performed against DepMap, TP53 annotations in Fig. 6c,d are directly from DepMap.

[1] = GCIY_STOMACH, pert_dose 6.10E-04
[2] = GCT_SOFT_TISSUE, pert_dose 6.10E-04
[3] = GI1_CENTRAL_NERVOUS_SYSTEM, pert_dose 6.10E-04
[4] = GMS10_CENTRAL_NERVOUS_SYSTEM, pert_dose 6.10E-04
[5] = GOS3_CENTRAL_NERVOUS_SYSTEM, pert_dose 6.10E-04
[6] = HCC56_LARGE_INTESTINE, pert_dose 6.10E-04
[7] = HCC366_LUNG, pert_dose 6.10E-04
[8] = HCC1143_BREAST, pert_dose 6.10E-04
[9] = HCC1195_LUNG, pert_dose 6.10E-04
[10] = HCC1359_LUNG, pert_dose 6.10E-04
[11] = HCC1419_BREAST, pert_dose 6.10E-04
[12] = HCC1428_BREAST, pert_dose 6.10E-04
[13] = HCC1438_LUNG, pert_dose 6.10E-04
[14] = HCC1806_BREAST, pert_dose 6.10E-04
[15] = HCC4006_LUNG, pert_dose 6.10E-04
[16] = HCT15_LARGE_INTESTINE, pert_dose 6.10E-04
[17] = HCT116_LARGE_INTESTINE, pert_dose 6.10E-04
[18] = HDQP1_BREAST, pert_dose 6.10E-04

Structure (SMILES): COc1ccc(C2=N[C@@H](c3ccc(Cl)cc3)[C@@H](c3ccc(Cl)cc3)N2C(=O)N2CCNC(=O)C2)c(OC(C)C)c1 [Nutlin-3A]
- AUC (FTC238_THYROID): 1.264
- MFI FTC238_THYROID (FTC238_THYROID, pert_dose 6.10E-04): 2880 and 3372 and 2980.5 and 2950.5 and 4003.5
- AUC (G292CLONEA141B1_BONE): 1.148
- AUC (G361_SKIN): 1.031
- MFI G361_SKIN (G361_SKIN, pert_dose 6.10E-04): 10064 and 9507.5 and 5703 and 7102 and 9477
- AUC (G401_SOFT_TISSUE): 0.8138
- AUC (G402_SOFT_TISSUE): 0.8312
- MFI G402_SOFT_TISSUE (G402_SOFT_TISSUE, pert_dose 6.10E-04): 8566 and 7883 and 9123.5 and 10028.5 and 7843.5
- AUC (GAMG_CENTRAL_NERVOUS_SYSTEM): 1.104
- AUC (GB1_CENTRAL_NERVOUS_SYSTEM): 1.08
- MFI GB1_CENTRAL_NERVOUS_SYSTEM (GB1_CENTRAL_NERVOUS_SYSTEM, pert_dose 6.10E-04): 8797 and 10917.5 and 10369 and 11626 and 6173
- AUC (GCIY_STOMACH): 1.0178
- MFI GCIY_STOMACH [1]: 10513.5 and 10287.5 and 8158.5 and 7393 and 6559.5
- Viability [1]: 1.05
- AUC (GCT_SOFT_TISSUE): 1.1243
- MFI GCT_SOFT_TISSUE [2]: 30402 and 32248 and 27974 and 25401 and 26115.5
- Viability [2]: 1.1
- AUC (GI1_CENTRAL_NERVOUS_SYSTEM): 1.1989
- MFI GI1_CENTRAL_NERVOUS_SYSTEM [3]: 7007.5 and 7677 and 5613.5 and 9782 and 8476.5
- Viability [3]: 1.209
- AUC (GMS10_CENTRAL_NERVOUS_SYSTEM): 1.196
- MFI GMS10_CENTRAL_NERVOUS_SYSTEM [4]: 2195 and 3287.5 and 2615 and 2263.5 and 2230
- Viability [4]: 0.8757
- AUC (GOS3_CENTRAL_NERVOUS_SYSTEM): 0.8893
- MFI GOS3_CENTRAL_NERVOUS_SYSTEM [5]: 16506.5 and 12732.5 and 12479 and 15312 and 16884
- Viability [5]: 1.256
- AUC (GP2D_LARGE_INTESTINE): 0.8664
- AUC (H4_CENTRAL_NERVOUS_SYSTEM): 0.8741
- AUC (HARA_LUNG): 1.148
- MFI HARA_LUNG (HARA_LUNG, pert_dose 6.10E-04): 10420 and 10731 and 9850 and 12219 and 8432
- Viability (HARA_LUNG, pert_dose 6.10E-04): 1.156
- AUC (HCC15_LUNG): 1.083
- MFI HCC15_LUNG (HCC15_LUNG, pert_dose 6.10E-04): 10708.5 and 9658 and 9646.5 and 7600 and 8929.5
- AUC (HCC38_BREAST): 1.13
- AUC (HCC44_LUNG): 1.143
- MFI HCC44_LUNG (HCC44_LUNG, pert_dose 6.10E-04): 8858.5 and 14957 and 12427 and 9895 and 9714
- Viability (HCC44_LUNG, pert_dose 6.10E-04): 0.9479
- AUC (HCC56_LARGE_INTESTINE): 1.116
- MFI HCC56_LARGE_INTESTINE [6]: 22390 and 19383.5 and 18019.5 and 16274 and 12370
- Viability [6]: 1.19
- AUC (HCC78_LUNG): 1.129
- MFI HCC78_LUNG (HCC78_LUNG, pert_dose 6.10E-04): 13938.5 and 17123.5 and 16093 and 13546.5 and 12989
- Viability (HCC78_LUNG, pert_dose 6.10E-04): 1.137
- AUC (HCC95_LUNG): 1.133
- MFI HCC95_LUNG (HCC95_LUNG, pert_dose 6.10E-04): 19085 and 17009 and 14223 and 15820 and 14624.5
- Viability (HCC95_LUNG, pert_dose 6.10E-04): 1.3736
- AUC (HCC366_LUNG): 1.1015
- MFI HCC366_LUNG [7]: 3176 and 4976 and 3338 and 4080 and 5551.5
- Viability [7]: 0.8601
- AUC (HCC827_LUNG): 1.216
- AUC (HCC1143_BREAST): 1.173
- MFI HCC1143_BREAST [8]: 10292 and 10056.5 and 12994 and 8725 and 11412
- Viability [8]: 1.09
- AUC (HCC1195_LUNG): 0.9896
- MFI HCC1195_LUNG [9]: 3248 and 2450 and 2557 and 3311 and 2339
- Viability [9]: 0.8066
- AUC (HCC1359_LUNG): 1.205
- MFI HCC1359_LUNG [10]: 3254.5 and 3202.5 and 4282 and 3759 and 4252
- Viability [10]: 1.0552
- AUC (HCC1419_BREAST): 1.157
- MFI HCC1419_BREAST [11]: 4554 and 3766 and 6250 and 4022 and 3342
- Viability [11]: 1.3281
- AUC (HCC1428_BREAST): 1.0418
- MFI HCC1428_BREAST [12]: 5601.5 and 4304.5 and 6512 and 4295 and 6602.5
- Viability [12]: 0.9769
- AUC (HCC1438_LUNG): 1.064
- MFI HCC1438_LUNG [13]: 3705.5 and 4037.5 and 3791 and 2958 and 2338
- Viability [13]: 1.029
- AUC (HCC1588_LUNG): 0.8674
- MFI HCC1588_LUNG (HCC1588_LUNG, pert_dose 6.10E-04): 12748 and 13169 and 10479 and 16252.5 and 12413.5
- AUC (HCC1806_BREAST): 1.223
- MFI HCC1806_BREAST [14]: 4998.5 and 5222.5 and 6609 and 6768 and 3833.5
- Viability [14]: 1.444
- AUC (HCC1937_BREAST): 1.259
- Viability (HCC1937_BREAST, pert_dose 6.10E-04): 0.8468
- AUC (HCC4006_LUNG): 1.075
- MFI HCC4006_LUNG [15]: 13511 and 17514.5 and 15021 and 17956 and 15891.5
- Viability [15]: 1.081
- AUC (HCT15_LARGE_INTESTINE): 1.231
- MFI HCT15_LARGE_INTESTINE [16]: 19712 and 17910 and 19958 and 21240.5 and 15477
- Viability [16]: 1.456
- AUC (HCT116_LARGE_INTESTINE): 0.9703
- MFI HCT116_LARGE_INTESTINE [17]: 29799 and 33721.5 and 25531.5 and 28789.5 and 30554.5
- Viability [17]: 1.204
- AUC (HDQP1_BREAST): 1.144
- MFI HDQP1_BREAST [18]: 7912.5 and 7534 and 9203 and 8805.5 and 8820
- Viability [18]: 1.159
- AUC (HEC1A_ENDOMETRIUM): 0.9522
- AUC (HEC1B_ENDOMETRIUM): 1.073
- Viability (HEC1B_ENDOMETRIUM, pert_dose 6.10E-04): 0.9409
- AUC (HEC6_ENDOMETRIUM): 1.185
